Measured values as given in US8673360B2, “Compositions that enable rapid-acting and highly absorptive intranasal administration” (Shin Nippon Biomedical Laboratories, Ltd., priority 2004, dated 2014).

Experiments:
[1] = Intranasal administration of oxycodone in cynomolgus monkeys: plasma oxycodone by HPLC, against subcutaneous injection
[2] = Intranasal administration of tropisetron in cynomolgus monkeys: plasma tropisetron by HPLC, against intravenous injection; type: in vivo
Experimental: A single dose of an intranasal delivery composition was nasally administered to cynomolgus monkeys (body weight: 4.3 to 7.2 kg). Each composition was encapsulated and administered nasally using a device for nasal administration (Bioactis Co. Ltd.).
27.5 mg of tropisetron hydrochloride (equivalent to 25 mg of tropisetron free base) (Sigma), which is an antiemetic agent, and 72.5 mg of crystalline cellulose (Asahi Kasei: Avicel™ PH-F20) were mixed thoroughly in a mortar. The obtained tropisetron composition was prepared and 4.4 mg tropisetron hydrochloride (equivalent to 4.0 mg of tropisetron free base) per head was administered nasally to male cynomolgus monkeys weighing from 6.3 to 7.2 kg (n=3).
The injection was given intravenously to male cynomolgus monkeys weighing 6.9 and 7.2 kg (n=2), at 0.22 mg tropisetron hydrochloride (equivalent to 0.20 mg of tropisetron free base) per kg weight.
The plasma concentration of tropisetron free base after administration was determined by the HPLC method.
The time course of plasma tropisetron concentration after intravenous injection was subjected to a 2-compartment model analysis using the linear least-square method. The area under the theoretical plasma concentration vs. time curve (AUC) was determined based on the theoretical plasma tropisetron concentration calculated.

SMILES	Time at which the maximum plasma concentration of oxycodone was reached ([1]; intranasal, time course of plasma concentrations) [min]	bioavailability ([1]; male, cynomolgus, cynomolgus monkey, plasma, other: intranasal, […]) [%]	Time at which the maximum plasma concentration of tropisetron was achieved ([2]; intranasal, time course of average plasma concentrations) [min]	bioavailability ([2]; male, cynomolgus monkey, plasma, other: intranasal, nasal, 4 mg/body (0.59 mg/kg), compared with intravenous injection, read-out: BA (bioavailability) of tropisetron) [%]
COc1ccc2c3c1O[C@H]1C(=O)CC[C@@]4(O)[C@@H](C2)N(C)CC[C@]314 [oxycodone]	20	71.7		
CN1[C@@H]2CC[C@H]1C[C@@H](OC(=O)c1c[nH]c3ccccc13)C2 [tropisetron]			5	73.4
